Measured values reported in ChEMBL document CHEMBL5154927, “Discovery of Novel Bicyclic Phenylselenyl-Containing Hybrids: An Orally Bioavailable, Potential, and Multiacting Class of Estrogen Receptor Modulators against Endocrine-Resistant Breast Cancer” (J Med Chem, 2022).
Activity calls are given as the source filed them. The calls are words filed in the database; no cut-off is given here.

What was measured:
[1] = AUC in BALB/C mouse at 20 mg/kg, po by LC-MS/MS analysis; type: ADME, organism-based; parameters: dose 20 mg/kg, route po; conditions: in vivo
MCF7 [2] = assay: Induction of apoptosis in human MCF7 cells assessed as decrease in Bcl2 level at 0.5 to 4 uM incubated for 48 hrs by western blot analysis; type: functional, cell-based; conditions: dose 0.5-4 µM
MCF7 [3] = assay: Induction of mitochondrial membrane potential loss in human MCF7 cells at 1 uM incubated for 48 hrs by JC-1 staining based flow cytometry relative to control; type: functional
[4] = Half life in BALB/C mouse at 20 mg/kg, po by LC-MS/MS analysis; type: ADME, organism-based; conditions: in vivo
LCC2 [5] = assay: Induction of ROS production in tamoxifen-resistant human LCC2 cells at 1 to 4 uM measured after 48 hrs by DCFH-DA staining based confocal laser scanning microscopic method; type: functional, cell-based; conditions: dose 1-4 µM
[6] = AUC in BALB/C mouse at 5 mg/kg, iv by LC-MS/MS analysis; type: ADME, organism-based; parameters: dose 5 mg/kg, route iv; conditions: in vivo
[7] = Toxicity in BALB/C mouse xenografted with human MCF7 cells assessed as mortality at 10 to 20 mg/kg, po measured after 34 days; type: organism-based; conditions: in vivo, 816 h, dose 10-20 mg/kg, time 34 day
[8] = target: T1, Hexokinase-1 (Homo sapiens) (UniProt P19367); assay: Binding affinity to hexokinase-1 in human MCF7 cell lysate measured after overnight incubation by LC-MS/MS analysis; type: subcellular; conditions: filed as antagonist, time 14.0 hrs
T1 sequence (whole entry): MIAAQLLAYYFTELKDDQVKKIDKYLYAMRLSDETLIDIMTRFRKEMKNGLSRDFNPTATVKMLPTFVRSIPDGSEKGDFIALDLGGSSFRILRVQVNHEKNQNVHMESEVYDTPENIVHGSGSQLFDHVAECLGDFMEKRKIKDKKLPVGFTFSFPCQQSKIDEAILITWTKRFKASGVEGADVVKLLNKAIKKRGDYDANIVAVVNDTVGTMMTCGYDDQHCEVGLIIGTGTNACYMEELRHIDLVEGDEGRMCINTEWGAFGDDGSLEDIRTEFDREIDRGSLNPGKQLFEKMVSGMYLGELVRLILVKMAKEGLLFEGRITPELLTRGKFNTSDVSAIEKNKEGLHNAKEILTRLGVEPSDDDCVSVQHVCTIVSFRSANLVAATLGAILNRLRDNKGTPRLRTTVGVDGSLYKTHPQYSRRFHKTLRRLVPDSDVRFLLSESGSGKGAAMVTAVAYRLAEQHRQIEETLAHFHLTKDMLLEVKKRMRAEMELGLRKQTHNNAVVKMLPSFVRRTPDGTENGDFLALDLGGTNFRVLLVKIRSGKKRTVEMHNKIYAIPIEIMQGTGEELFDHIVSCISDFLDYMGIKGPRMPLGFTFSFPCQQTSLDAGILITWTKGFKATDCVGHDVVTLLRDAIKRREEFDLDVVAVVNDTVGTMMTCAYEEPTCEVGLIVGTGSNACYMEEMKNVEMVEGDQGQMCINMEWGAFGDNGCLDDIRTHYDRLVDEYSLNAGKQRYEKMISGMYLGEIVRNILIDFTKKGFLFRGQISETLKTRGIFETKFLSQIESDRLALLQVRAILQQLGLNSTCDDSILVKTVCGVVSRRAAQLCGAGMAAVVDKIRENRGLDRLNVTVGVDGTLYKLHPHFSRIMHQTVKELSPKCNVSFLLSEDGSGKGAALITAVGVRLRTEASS

[9] = Toxicity in BALB/C mouse xenografted with human MCF7 cells assessed as morphological changes in liver at 10 to 20 mg/kg, po by hematoxylin and eosin staining based analysis; type: organism-based; conditions: in vivo, dose 10-20 mg/kg
MCF7 [10] = assay: Antitumor activity against human MCF7 cells xenografted in BALB/C mouse assessed as suppression of tumor growth at 10 to 20 mg/kg, po measured every 2 days for 34 days; type: functional, organism-based; conditions: dose 10-20 mg/kg, time 34.0 day
LCC2 [11] = assay: Downregulation of hexokinase-1 expression in tamoxifen-resistant human LCC2 cell outer mitochondrial membrane measured after 24 hrs by Western blot analysis; type: functional; conditions: Mitochondria
MCF7 [12] = assay: Induction of mitochondrial membrane potential loss in human MCF7 cells at 4 uM incubated for 48 hrs by JC-1 staining based flow cytometry relative to control; type: functional
MCF7 [13] = assay: Antitumor activity against human MCF7 cells xenografted in BALB/C mouse assessed as increase in tumor necrosis area at 20 mg/kg, po […]; type: functional, organism-based
[14] = Toxicity in BALB/C mouse xenografted with tamoxifen-resistant human LCC2 cells assessed as effect on body weight at 20 mg/kg, po measured after 22 days; type: organism-based; conditions: in vivo, 528 h, time 22 day
MCF7 [15] = assay: Induction of mitochondrial membrane potential loss in human MCF7 cells incubated for 48 hrs by JC-1 staining based flow cytometry; type: functional, cell-based; conditions: dose 1-4 µM, DDE = dose-dependent effect
MCF7 [16] = assay: Induction of apoptosis in human MCF7 cells assessed as decrease in Bcl-2/Bax ratio by western blot analysis; type: functional, cell-based; conditions: DDE = dose-dependent effect
LCC2 [17] = assay: Induction of apoptosis in tamoxifen-resistant human LCC2 cells assessed as increase in Bax level at 5 to 30 uM incubated for 48 hrs by western blot analysis; type: functional, cell-based; conditions: dose 5-30 µM
MCF7 [18] = assay: Induction of apoptosis in human MCF7 cells assessed as total apoptotic cells at 4 uM incubated for 48 hrs by annexin V-FITC staining based flow cytometry; type: functional
LCC2 [19] = assay: Induction of apoptosis in tamoxifen-resistant human LCC2 cells assessed as decrease in Bcl-2/Bax ratio by western blot analysis; type: functional, cell-based; conditions: DDE = dose-dependent effect
MCF7 [20] = assay: Downregulation of hexokinase-1 expression in human MCF7 cell outer mitochondrial membrane at 1 to 16 uM measured after 24 hrs by Western blot analysis; type: functional; conditions: Mitochondria, dose 1-16 µM
MCF7 [21] = assay: Antitumor activity against human MCF7 cells xenografted in BALB/C mouse assessed as reduction of tumor weight at 20 mg/kg, po measured every 2 days for 34 days; type: functional, organism-based; conditions: time 34.0 day

SMILES: O=S(=O)(Oc1cccc2ccccc12)C1CC2OC1C(c1ccc([Se]c3ccccc3)cc1)=C2c1ccc(O)cc1 (stereo unspecified)
- AUC [1]: 1430 ng·h/mL
- Activity (MCF7 [2]): Active
- Activity (MCF7 [3]): 9.61%
- half-life [4]: 55.8 min
- Activity (LCC2 [5]): Active
- AUC [6]: 1550 ng·h/mL
- Activity [7]: Non-Toxic
- Activity [8]: Active
- Activity [9]: Non-Toxic
- Activity (MCF7 [10]): Active
- Activity (LCC2 [11]): Active
- Activity (MCF7 [12]): 13.87%
- Activity (MCF7 [13]): Active
- Activity [14]: Non-Toxic
- Activity (MCF7 [15]): Dde
- Activity (MCF7 [16]): Dde
- Activity (LCC2 [17]): Active
- Activity (MCF7 [18]): 19.98%
- Activity (LCC2 [19]): Dde
- Activity (MCF7 [20]): Active
- Activity (MCF7 [21]): Active
